For the test, the target named is T1, PI3Kα (Homo sapiens, UniProt P42336).
T1 construct: gene PIK3CA
Put plainly: biochemical.

The record followed here is paper PMC12332164, “Synthesis and biological activity study of tanshinone I-pyridinium salt derivatives” (Natural Products and Bioprospecting, 2025).

T1 sequence (P42336 whole entry): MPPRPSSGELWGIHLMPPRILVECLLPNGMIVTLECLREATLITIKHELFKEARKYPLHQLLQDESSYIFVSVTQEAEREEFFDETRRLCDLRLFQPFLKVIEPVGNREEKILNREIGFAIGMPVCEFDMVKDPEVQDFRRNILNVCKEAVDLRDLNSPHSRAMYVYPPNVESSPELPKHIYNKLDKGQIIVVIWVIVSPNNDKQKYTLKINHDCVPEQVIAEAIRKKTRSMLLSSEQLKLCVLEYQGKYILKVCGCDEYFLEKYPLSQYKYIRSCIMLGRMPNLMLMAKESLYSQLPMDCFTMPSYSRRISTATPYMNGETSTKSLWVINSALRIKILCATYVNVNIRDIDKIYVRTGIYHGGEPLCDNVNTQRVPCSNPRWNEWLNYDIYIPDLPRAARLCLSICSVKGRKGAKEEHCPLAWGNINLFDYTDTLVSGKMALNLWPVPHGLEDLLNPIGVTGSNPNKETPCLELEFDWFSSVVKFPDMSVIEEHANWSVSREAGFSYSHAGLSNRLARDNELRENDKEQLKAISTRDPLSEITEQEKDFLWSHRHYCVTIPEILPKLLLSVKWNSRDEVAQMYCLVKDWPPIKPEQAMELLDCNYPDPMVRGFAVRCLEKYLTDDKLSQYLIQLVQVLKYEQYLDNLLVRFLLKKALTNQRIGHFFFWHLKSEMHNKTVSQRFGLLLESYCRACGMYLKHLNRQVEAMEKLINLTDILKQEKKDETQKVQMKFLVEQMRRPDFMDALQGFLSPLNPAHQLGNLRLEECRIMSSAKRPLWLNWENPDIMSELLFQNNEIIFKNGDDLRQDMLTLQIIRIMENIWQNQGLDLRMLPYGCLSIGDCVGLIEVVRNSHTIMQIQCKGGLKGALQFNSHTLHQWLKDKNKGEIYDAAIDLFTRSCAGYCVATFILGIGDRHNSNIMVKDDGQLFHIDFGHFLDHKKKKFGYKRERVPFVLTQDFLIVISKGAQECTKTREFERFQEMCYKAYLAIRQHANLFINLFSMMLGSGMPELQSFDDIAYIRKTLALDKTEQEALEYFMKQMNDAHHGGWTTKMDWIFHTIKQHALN
T1 sequence (P27986 2-724, further chain): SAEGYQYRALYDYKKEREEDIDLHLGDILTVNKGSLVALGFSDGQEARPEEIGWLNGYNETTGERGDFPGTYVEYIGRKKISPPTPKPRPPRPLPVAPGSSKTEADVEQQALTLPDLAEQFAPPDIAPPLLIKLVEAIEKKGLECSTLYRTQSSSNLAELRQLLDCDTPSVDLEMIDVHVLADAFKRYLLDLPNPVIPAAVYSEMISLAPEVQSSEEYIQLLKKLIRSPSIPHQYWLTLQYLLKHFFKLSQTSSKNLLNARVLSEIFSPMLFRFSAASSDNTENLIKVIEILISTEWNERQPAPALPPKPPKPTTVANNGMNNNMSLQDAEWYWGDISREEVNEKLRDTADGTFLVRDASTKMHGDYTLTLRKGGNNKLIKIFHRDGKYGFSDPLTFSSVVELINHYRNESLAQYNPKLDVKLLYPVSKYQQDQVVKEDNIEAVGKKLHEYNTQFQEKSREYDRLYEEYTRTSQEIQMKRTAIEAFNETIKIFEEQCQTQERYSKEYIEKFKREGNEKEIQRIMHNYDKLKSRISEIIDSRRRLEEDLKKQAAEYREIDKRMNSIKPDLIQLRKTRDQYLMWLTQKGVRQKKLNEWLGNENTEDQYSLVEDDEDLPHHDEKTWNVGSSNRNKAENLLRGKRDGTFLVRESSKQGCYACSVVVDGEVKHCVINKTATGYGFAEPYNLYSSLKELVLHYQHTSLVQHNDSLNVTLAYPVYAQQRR

In the case of `Cc1cccc2c1ccc1c3occ(C)c3c3[nH]c(-c4ccc[n+](CC(=O)c5ccc(Br)cc5)c4)nc3c21` [a4, 1-(2-(4-bromophenyl)-2-oxoethyl)-3-(1,6-dimethyl-12H-furo[2',3':1,2]phenanthro[3,4-d]imidazol-11-yl) pyridin-1-ium bromide], the IC50 came to 9.24 ± 0.2 µM.
